Assays:
[1] = biological target: lysozyme (Gallus gallus, UniProt P00698); experiment: Stabilization of lysozyme against heat stress with trehalose-CL as excipient; assay type: biochemical; conditions: lysozyme 0.02 mg/mL heated to 90° C. for 20 minutes; additive 5 to 25 wt eq.; FIG. 12a
Procedure: Stabilization of model proteins using trehalose-caprolactone as excipient. The ability of these biodegradable trehalose polymers to stabilize proteins was confirmed through heat and lyophilization stress assays. […] Therefore, these proteins were also selected to test the biodegradable trehalose polymers. First, lysozyme was stressed by heating to 90° C. for 20 minutes.
Trehalose-CL and a styrenyl ether trehalose (SET) polymer previously described were also directly compared in their stabilization of lysozyme (FIG. 13) (Lee et al., 2013). […] Thus, the degradable trehalose glycopolymer was similar in stabilization ability to the non-degradable version.

[2] = system: β-galactosidase (β-Gal); conditions: three 12-hour desiccation cycles; 25 equivalents of trehalose; FIG. 12b
Procedure: The stabilization of β-Gal against lyophilization stress was also measured. […] The activity of β-Gal was determined by reaction with ortho-nitrophenol galactose (ONPG). When incubated with β-Gal, release of the yellow-colored o-nitrophenol from ONPG can be monitored at 405 nm.
The activity of β-Gal was determined by reaction with ortho-nitrophenol galactose (ONPG). When incubated with β-Gal, release of the yellow-colored o-nitrophenol from ONPG can be monitored at 405 nm.
Lyophilization studies with β-galactosidase were carried out as previously described; β-Gal was subjected to three 12 hour lyophliization cycles before dilution. Activity was assayed by monitoring the hydrolysis of o-nitrophenol galactose (ONPG) at 405 nm.

Chain of lysozyme (P00698 19-147): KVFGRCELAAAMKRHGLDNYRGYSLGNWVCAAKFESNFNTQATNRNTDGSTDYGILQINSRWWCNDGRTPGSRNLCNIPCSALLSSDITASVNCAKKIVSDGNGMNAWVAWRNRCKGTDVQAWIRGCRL

`OC[C@H]1O[C@H](O[C@H]2O[C@H](CO)[C@@H](O)[C@H](O)[C@H]2O)[C@H](O)[C@@H](O)[C@@H]1O` [trehalose] was tested, and the “lysozyme native activity retained after heat stress” value [1] was “not significantly different from the negative control” and the “β-Gal native activity maintained after lyophilization stress, 25 equivalents of additive” value [2] was “up to 67%”.

From US10899879B2, “Biodegradable trehalose glycopolymers” (THE REGENTS OF THE UNIVERSITY OF CALIFORNIA, priority 2014, dated 2021)
